molecular target: T1, recombinant human GST-SYK (Homo sapiens, UniProt P43405); experiment: Homogeneous Time-Resolved Fluorescence (HTRF) assay for the recombinant human Syk enzyme; type: biochemical; conditions: HTRF assay, recombinant human GST-SYK; IC50 given as class symbols; read-out: rhSYK Activity
T1 construct: purchased Carna Biosciences 08-176
Summary of the method: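 Enzyme […], pH 7.5 Tris/tween/DTT buffer; 10 min preincubation with compound, RT. Start: 250 nM biotin-peptide, 25 μM ATP, 5 mM Mg; 45′ RT. Stop/detect: 40 mM EDTA, Eu-anti-pTyr, SA-APC; read 30 min later.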

IC50 [nM] | SMILES
< 100 | Cc1cc(Nc2nccc(C(F)(F)F)n2)cc(-c2ccc(C(F)(F)C(=O)O)nc2)c1 [Example 2.116, difluoro[5-(3-methyl-5-{[4-(trifluoromethyl)pyrimidin-2-yl]amino}phenyl)pyridin-2-yl]acetic acid]
< 100 | Cc1cc(Nc2nccc(C(F)(F)F)n2)cc(-c2ccc(C(F)(F)CO)nc2)c1 [Example 2.117, 2,2-difluoro-2-[5-(3-methyl-5-{[4-(trifluoromethyl)pyrimidin-2-yl]amino}phenyl)pyridin-2-yl]ethanol]
100 to 1000 | COc1nc(Nc2cc(C)cc(-c3ccc(N[C@H]4CC[C@H](C(=O)O)CC4)nc3)c2)ncc1Cl [Example 2.118, trans-4-[(5-{3-[(5-chloro-4-methoxypyrimidin-2-yl)amino]-5-methylphenyl}pyridin-2-yl)amino]cyclohexanecarboxylic acid]
< 100 | Cc1cc(Nc2ncc(Cl)c(C)n2)cc(-c2ccc(N[C@H]3CC[C@H](C(=O)O)CC3)nc2)c1 [Example 2.119, trans-4-[(5-{3-[(5-chloro-4-methylpyrimidin-2-yl)amino]-5-methylphenyl}pyridin-2-yl)amino]cyclohexanecarboxylic acid]
< 100 | Cc1cc(Nc2ncc(F)c(C)n2)cc(-c2ccc(N[C@H]3CC[C@H](C(=O)O)CC3)nc2)c1 [Example 2.120, trans-4-[(5-{3-[(5-fluoro-4-methylpyrimidin-2-yl)amino]-5-methylphenyl}pyridin-2-yl)amino]cyclohexanecarboxylic acid]
< 100 | COc1nc(Nc2cc(C)cc(-c3ccc(N[C@H]4CC[C@H](C(=O)O)CC4)nc3)c2)ncc1F [Example 2.121, trans-4-[(5-{3-[(5-fluoro-4-methoxypyrimidin-2-yl)amino]-5-methylphenyl}pyridin-2-yl)amino]cyclohexanecarboxylic acid]
100 to 1000 | COc1cc(-c2cccc(Nc3nccc(C(F)(F)F)n3)c2)ccn1 [Example 2.122, N-[3-(2-methoxypyridin-4-yl)phenyl]-4-(trifluoromethyl)pyrimidin-2-amine]
100 to 1000 | Cc1cc(Nc2nccc(C(F)(F)F)n2)cc(-c2ccnc(C(F)(F)F)c2)c1 [Example 2.123, N-{3-methyl-5-[2-(trifluoromethyl)pyridin-4-yl]phenyl}-4-(trifluoromethyl)pyrimidin-2-amine]
< 100 | Cc1cc(Nc2nccc(C(F)(F)F)n2)cc(-c2ccncc2)c1 [Example 2.124, N-(3-methyl-5-pyridin-4-ylphenyl)-4-(trifluoromethyl)pyrimidin-2-amine]
< 100 | Cc1cc(Nc2nccc(C(F)(F)F)n2)cc(-c2ccnc(O)c2)c1 [Example 2.125, 4-(3-methyl-5-{[4-(trifluoromethyl)pyrimidin-2-yl]amino}phenyl)pyridin-2-ol]
< 100 | Cc1cc(Nc2nccc(C(F)(F)F)n2)cc(-c2ccnc(N3CCNCC3)c2)c1 [Example 2.126, N-[3-methyl-5-(2-piperazin-1-ylpyridin-4-yl)phenyl]-4-(trifluoromethyl)pyrimidin-2-amine]
100 to 1000 | Cc1cc(Nc2nccc(C(F)(F)F)n2)cc(-c2ccnc(Br)c2)c1 [Example 2.127, N-[3-(2-bromopyridin-4-yl)-5-methylphenyl]-4-(trifluoromethyl)pyrimidin-2-amine]
< 100 | O=C(O)CCc1cc(-c2cccc(Nc3nccc(C(F)(F)F)n3)c2)ccn1 [Example 2.129, 3-[4-(3-{[4-(trifluoromethyl)pyrimidin-2-yl]amino}phenyl)pyridin-2-yl]propanoic acid]
< 100 | COc1ccnc(Nc2cc(C)cc(-c3ccnc(CCC(=O)O)c3)c2)n1 [Example 2.131, 3-(4-{3-[(4-methoxypyrimidin-2-yl)amino]-5-methylphenyl}pyridin-2-yl)propanoic acid]
< 100 | Cc1cc(Nc2nccc(C(F)(F)F)n2)cc(-c2ccnc(CCC(=O)O)c2)c1 [Example 2.133, 3-[4-(3-methyl-5-{[4-(trifluoromethyl)pyrimidin-2-yl]amino}phenyl)pyridin-2-yl]propanoic acid]
100 to 1000 | CCOC(=O)CCc1cc(-c2cc(C)cc(Nc3nccc(C)n3)c2)ccn1 [Example 2.134, ethyl 3-(4-{3-methyl-5-[(4-methylpyrimidin-2-yl)amino]phenyl}pyridin-2-yl)propanoate]
< 100 | Cc1cc(Nc2nccc(C)n2)cc(-c2ccnc(CCC(=O)O)c2)c1 [Example 2.135, 3-(4-{3-methyl-5-[(4-methylpyrimidin-2-yl)amino]phenyl}pyridin-2-yl)propanoic acid]
100 to 1000 | CCOC(=O)CCc1cc(-c2cc(C)cc(Nc3nccc(C4CC4)n3)c2)ccn1 [Example 2.136, ethyl 3-(4-{3-[(4-cyclopropylpyrimidin-2-yl)amino]-5-methylphenyl}pyridin-2-yl)propanoate]
< 100 | Cc1cc(Nc2nccc(C3CC3)n2)cc(-c2ccnc(CCC(=O)O)c2)c1 [Example 2.137, 3-(4-{3-[(4-cyclopropylpyimidin-2-yl)amino]-5-methylphenyl}pyridin-2-yl)propanoic acid]
< 100 | Cc1cc(Nc2nccc(C(F)(F)F)n2)cc(-c2ccc(C(C)O)nc2)c1 (stereo not shown) [Example 2.138, 1-[5-(3-Methyl-5-{[4-(trifluoromethyl)pyrimidin-2-yl]amino}phenyl)pyridin-2-yl]ethanol]

IC50 [nM] | SMILES
< 100 | Cc1cc(Nc2nccc(C(F)(F)F)n2)cc(-c2ccc(CC(=O)O)nc2)c1 [Example 3.1, 2-(5-(3-methyl-5-((4-(trifluoromethyl)pyrimidin-2-yl)amino)phenyl)pyridin-2-yl)acetic acid]
< 100 | Cc1cc(Nc2nccc(C(F)(F)F)n2)cc(-c2ccc(CC(=O)N(C)C)nc2)c1 [Example 3.2, N,N-dimethyl-2-(5-(3-methyl-5-((4-(trifluoromethyl)pyrimidin-2-yl)amino)phenyl)pyridin-2-yl)acetamide]
< 100 | COc1ccnc(Nc2cc(C)cc(-c3ccnc(N)c3)c2)n1 [Example 4.1, N-[3-(2-aminopyridin-4-yl)-5-methylphenyl]-4-methoxypyrimidin-2-amine]
< 100 | Cc1cc(Nc2nccc(C(F)(F)F)n2)cc(-c2ccc(N)nc2)c1 [Example 4.2, N-[3-(6-aminopyridin-3-yl)-5-methylphenyl]-4-(trifluoromethyl)pyrimidin-2-amine]
< 100 | Cc1cc(Nc2nccc(C(F)(F)F)n2)cc(-c2cncc(F)c2)c1 [Example 4.3, N-[3-(5-fluoropyridin-3-yl)-5-methylphenyl]-4-(trifluoromethyl)pyrimidin-2-amine]
100 to 1000 | Cc1cc(Nc2nccc(C(F)(F)F)n2)cc(-c2ccc(F)nc2)c1 [Example 4.4, N-[3-(6-fluoropyridin-3-yl)-5-methylphenyl]-4-(trifluoromethyl)pyrimidin-2-amine]
100 to 1000 | COc1ccc(-c2cc(C)cc(Nc3nccc(C(F)(F)F)n3)c2)cn1 [Example 4.5, N-[3-(6-methoxypyridin-3-yl)-5-methylphenyl]-4-(trifluoromethyl)pyrimidin-2-amine]
100 to 1000 | Cc1cc(Nc2nccc(C(F)(F)F)n2)cc(-c2ccc(C(F)(F)F)nc2)c1 [Example 4.6, N-{3-methyl-5-[6-(trifluoromethyl)pyridin-3-yl]phenyl}-4-(trifluoromethyl)pyrimidin-2-amine]
< 100 | Cc1cc(Nc2nccc(C(F)(F)F)n2)cc(-c2ccc(CO)nc2)c1 [Example 4.7, [5-(3-methyl-5-{[4-(trifluoromethyl)pyrimidin-2-yl]amino}phenyl)pyridin-2-yl]methanol]
100 to 1000 | Cc1cc(Nc2nccc(C(F)(F)F)n2)cc(-c2ccc(O)nc2)c1 [Example 4.8, 5-(3-methyl-5-{[4-(trifluoromethyl)pyrimidin-2-yl]amino}phenyl)pyridin-2-ol]
100 to 1000 | COc1cccc(-c2cc(C)cc(Nc3nccc(C(F)(F)F)n3)c2)n1 [Example 4.9]
100 to 1000 | COc1cc(-c2cc(C)cc(Nc3nccc(C(F)(F)F)n3)c2)ccn1 [Example 4.10]
100 to 1000 | Cn1cc(-c2cccc(Nc3nccc(C(F)(F)F)n3)c2)ccc1=O [Example 5.1, 1-Methyl-5-(3-{[4-(trifluoromethyl)pyrimidin-2-yl]amino}phenyl)pyridin-2(1H)-one]
100 to 1000 | Cn1ccc(-c2cccc(Nc3nccc(C(F)(F)F)n3)c2)cc1=O [Example 5.2, 1-methyl-4-(3-{[4-(trifluoromethyl)pyrimidin-2-yl]amino}phenyl)pyridin-2(1H)-one]
100 to 1000 | Cn1c(-c2cccc(Nc3nccc(C(F)(F)F)n3)c2)cccc1=O [Example 5.3, 1-methyl-6-(3-{[4-(trifluoromethyl)pyrimidin-2-yl]amino}phenyl)pyridin-2(1H)-one]
< 100 | CNC(=O)Nc1cc(Nc2nccc(C(F)(F)F)n2)cc(-c2cccnc2)c1 [Example 6.1, 1-Methyl-3-[3-(pyridin-3-yl)-5-{[4-(trifluoromethyl)pyrimidin-2-yl]amino}phenyl]urea]
< 100 | CCNC(=O)Nc1cc(Nc2nccc(C(F)(F)F)n2)cc(-c2cccnc2)c1 [Example 6.3, 1-ethyl-3-(3-pyridin-3-yl-5-{[4-(trifluoromethyl)pyrimidin-2-yl]amino}phenyl)urea]
< 100 | Nc1cc(Nc2nccc(C(F)(F)F)n2)cc(-c2ccncc2)c1 [Example 6.4, 5-pyridin-4-yl-N-[4-(trifluoromethyl)pyrimidin-2-yl]benzene-1,3-diamine]
< 100 | CC(=O)Nc1cc(Nc2nccc(C(F)(F)F)n2)cc(-c2ccncc2)c1 [Example 6.5, N-(3-pyridin-4-yl-5-{[4-(trifluoromethyl)pyrimidin-2-yl]amino}phenyl)acetamide]
< 100 | CCNC(=O)Nc1cc(Nc2nccc(C(F)(F)F)n2)cc(-c2ccc(C(=O)O)nc2)c1 [Example 6.6, 5-(3-[(ethylcarbamoyl)amino]-5-{[4-(trifluoromethyl)pyrimidin-2-yl]amino}phenyl)pyridine-2-carboxylic acid]
